Measured values taken from ChEMBL document CHEMBL1129277, “Nonpeptidal P2 ligands for HIV protease inhibitors: structure-based design, synthesis, and biological evaluation” (J Med Chem, 1996).
Converted amounts (≈) assume the structure as drawn.

How the values were obtained:
[1] = test system: Human immunodeficiency virus 1; assay: Inhibition of HIV-1 replication in infected MT-4 human T-lymphoid cells.; assay type: functional, organism-based; settings: Human immunodeficiency virus 1, T-lymphoid
[2] = target: Human immunodeficiency virus type 1 protease (Human immunodeficiency virus 1) (UniProt Q72874); assay: Inhibitory activity against HIV-1 protease enzyme
[3] = Aqueous solubility in phosphate buffer of pH 7.4; assay type: physicochemical

Structure (SMILES) | IC50 [1] [nM] | IC95 [2] [nM] | solubility [3] [µg/mL]
CC(C)(C)NC(=O)[C@@H]1C[C@@H]2CCCC[C@@H]2CN1C[C@@H](O)[C@H](Cc1ccccc1)NC(=O)O[C@H]1CCSC1 | 132 | – | –
COC[C@@H]1SCC[C@@H]1OC(=O)N[C@@H](Cc1ccccc1)[C@H](O)CN1C[C@H]2CCCC[C@H]2C[C@H]1C(=O)NC(C)(C)C | 19.7 | – | –
CC(C)(C)NC(=O)[C@@H]1C[C@@H]2CCCC[C@@H]2CN1C[C@@H](O)[C@H](Cc1ccccc1)NC(=O)O[C@H]1CC[C@H]2OCC[C@@H]12 | 17 | – | –
C[C@H]1C[C@@H]2[C@@H](OC[C@@H]2OC(=O)N[C@@H](Cc2ccccc2)[C@H](O)CN2C[C@H]3CCCC[C@H]3C[C@H]2C(=O)NC(C)(C)C)O1 | 27.1 | 200 | –
CC(C)(C)NC(=O)[C@@H]1C[C@@H]2CCCC[C@@H]2CN1C[C@@H](O)[C@H](Cc1ccccc1)NC(=O)O[C@]12CCO[C@H]1OCC2 | 410 | > 200 | –
CC(C)(C)NC(=O)[C@@H]1C[C@@H]2CCCC[C@@H]2CN1C[C@@H](O)[C@H](Cc1ccccc1)NC(=O)O[C@H]1CO[C@H]2OCCC[C@H]21 | 4.2 | 100 | –
CC(C)(C)NC(=O)[C@@H]1C[C@@H]2CCCC[C@@H]2CN1C[C@@H](O)[C@H](Cc1ccccc1)NC(=O)O[C@H]1CCOC1 | 132 | – | 150 (≈ 291 µM)
CC(C)(C)NC(=O)[C@@H]1C[C@@H]2CCCC[C@@H]2CN1C[C@@H](O)[C@H](Cc1ccccc1)NC(=O)O[C@@H]1CCOC1 | 694 | > 800 | –
CC(C)(C)NC(=O)[C@@H]1C[C@@H]2CCCC[C@@H]2CN1C[C@@H](O)[C@H](Cc1ccccc1)NC(=O)O[C@H]1CO[C@@]2(C)OCC[C@@H]12 | 18.1 | > 200 | –
COC[C@H]1[C@@H](OC(=O)N[C@@H](Cc2ccccc2)[C@H](O)CN2C[C@H]3CCCC[C@H]3C[C@H]2C(=O)NC(C)(C)C)CCS1(=O)=O | 23.8 | – | –
CC(C)(C)NC(=O)[C@@H]1C[C@@H]2CCCC[C@@H]2CN1C[C@@H](O)[C@H](Cc1ccccc1)NC(=O)O[C@H]1CO[C@H]2OCC[C@H]21 | 1.8 | – | 235 (≈ 421 µM)
CC(C)(C)NC(=O)[C@@H]1C[C@@H]2CCCC[C@@H]2CN1C[C@@H](O)[C@H](Cc1ccccc1)NC(=O)O[C@@H]1CO[C@@H]2CCO[C@@H]21 | > 3000 | > 200 | –
CC(C)(C)NC(=O)[C@@H]1C[C@@H]2CCCC[C@@H]2CN1C[C@@H](O)[C@H](Cc1ccccc1)NC(=O)O[C@@H]1CO[C@@H]2OCCC[C@@H]21 | 1.2 | 50 | 107 (≈ 187 µM)
C[C@@H]1C[C@@H]2[C@@H](OC[C@@H]2OC(=O)N[C@@H](Cc2ccccc2)[C@H](O)CN2C[C@H]3CCCC[C@H]3C[C@H]2C(=O)NC(C)(C)C)O1 | 4.1 | 200 | –
CC(C)(C)NC(=O)[C@@H]1C[C@@H]2CCCC[C@@H]2CN1C[C@@H](O)[C@H](Cc1ccccc1)NC(=O)O[C@H]1CO[C@H]2CCC[C@H]21 | 190 | – | –
CC(C)(C)NC(=O)[C@@H]1C[C@@H]2CCCC[C@@H]2CN1C[C@@H](O)[C@H](Cc1ccccc1)NC(=O)O[C@H]1CO[C@H]2COC[C@H]21 | 1700 | – | –
CC(C)(C)NC(=O)[C@@H]1C[C@@H]2CCCC[C@@H]2CN1C[C@@H](O)[C@H](Cc1ccccc1)NC(=O)O[C@H]1CCS(=O)(=O)C1 | 76 | 364 | –
CC(C)(C)NC(=O)[C@@H]1C[C@@H]2CCCC[C@@H]2CN1C[C@@H](O)[C@H](Cc1ccccc1)NC(=O)O[C@@H]1CO[C@@H]2OCC[C@@H]21 | 6.4 | – | 130 (≈ 233 µM)
CC(C)(C)NC(=O)[C@@H]1C[C@@H]2CCCC[C@@H]2CN1C[C@@H](O)[C@H](Cc1ccccc1)NC(=O)[C@H](CC(N)=O)NC(=O)c1ccc2ccccc2n1 [SAQUINAVIR] | – | – | 10 (≈ 14.9 µM)
